Test results reported in publication PMC9088798, “An Approach to Derive Functional Peptide Inhibitors of Transcription Factor Activity” (JACS Au, 2022).

Key:
cJun/TRE DNA interaction = biological target: T1, cJun/TRE DNA interaction (Homo sapiens, UniProt P05412); assay: CD TRE DNA peak shift, antagonism of cJun/TRE DNA interaction; format: biochemical; settings: cJun 20 μM, TRE DNA 5 μM, DNA peak ~281 nm, Hill equation; three independent experiments, one SD; pH 7.4
T1 construct: The human cJun bZIP domain spans from Arg252 to Leu308; His-SUMO (N, cleaved yes); AS cap (two residues Ala-Ser) (N); GAP cap (three residues Gly-Ala-Pro) (C); made in house; host or cells: E. coli (pET21-His-SUMO plasmid)
T1 sequence (P05412 252-308): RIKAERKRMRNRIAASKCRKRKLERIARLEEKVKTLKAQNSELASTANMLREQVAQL
Protocol: The binding of cJun to TRE DNA can be observed by monitoring a DNA absorbance peak in the CD spectrum centered at ∼281 nm.[44] […] The addition of cJun (20 μM) to TRE DNA (5 μM) decreases this DNA peak by 55% as the cJun engages its target TRE site and alters the DNA structure (Figure 6A). Subsequent titration of HingeW into this bound cJun/TRE DNA mixture reverses the peak shift, with the peak increasing as DNA is released.
Figure 6 HingeW antagonizes cJun/TRE DNA interaction more effectively than A-FosW. (A) CD spectra showing a shift in the TRE DNA peak at ∼281 nm upon addition of cJun, which is reversed by the titration of HingeW into the sample, as HingeW sequesters the cJun in a nonfunctional heterodimer. […] EMSA showing the (C) unbound TRE DNA band shift upon addition of cJun and the subsequent restoration of the unbound DNA band intensity upon titration of either (D) HingeW or (E) A-FosW. (F). For both CD and EMSA, data was averaged from three independent experiments and the plotted error bars indicate one standard deviation. […]
(§1) µM) alongside ampicillin, kanamycin and chloramphenicol to maintain the required plasmids, and IPTG (1 mM) to induce protein expression. The library transformants were […]
(§2) increased to the optimum 4 µM in subsequent passages. […] This allows the occurrence of library members to be monitored as winner sequences are selected for. […]

TRE DNA = assay: CD control, interaction with TRE DNA; format: binding; settings: peptide 50 µM, TRE DNA 5 µM, CD spectra 260-320 nm
Protocol: as §1
however a lower stringency is used initially before selection is increased in later steps.
Colonies from this first round of selection were pooled and serially grown in liquid culture at starting OD600 of 0.05 and grown at 37°C with shaking at 200 rpm until the OD600 […]
increased to the optimum 4 µM in subsequent passages. Bacteria containing the most effective functional antagonists were expected to produce higher levels of TRE-mDHFR which provides a growth advantage, and these will dominate the culture. At each passage step, a sample of the culture was plated on LB agar (supplemented with antibiotics to maintain plasmids) to select and sequence individual colonies, and a DNA pool was also sequenced. This allows the occurrence of library members to be monitored as winner sequences are selected for. Assay Validation experiments utilised a modified assay methodology whereby overnight cultures from glycerol stocks of the Control Strains (Figure S6) were diluted to OD600=0.5 and 50 µL was plated on a selective M9 minimal […]
Circular Dichroism (CD): An Applied Photophysics Chirascan was used for CD measurements, with a 200 µL sample in a 1 mm path length CD cell. […]

cJun bZIP = assay: CD spectroscopy, binding to cJun bZIP (helicity of heterodimer); parameters: species or system human; settings: 20 °C, total peptide 10 μM equimolar, pH 7.4
From the text: Experiments were next undertaken to compare the binding of A-FosW and TBS-optimized HingeW to the cJun bZIP. CD spectroscopy was utilized to measure the global secondary structure of homo- and heterodimeric peptide samples, providing information on global α-helicity and thermal denaturation temperatures (Tm). The HingeW/cJun spectrum was 82% higher in α-helical content relative to the average of the two-component spectra (Figure 5A). […] This occurs as the total peptide concentration of the sample is kept constant (10 μM), meaning that the concentration of each component is halved upon mixing. If a sample component structure is unchanged upon mixing (i.e., no binding occurs), the CD signal for each component will average. The same, though smaller, trend was observed from the A-FosW/cJun spectra, where the α-helicity was 39% greater than the average (Figure 5B). This increased α-helical gain upon binding of HingeW/cJun implies a higher affinity interaction. Of note is that HingeW in isolation is 12.9% less helical relative to A-FosW. The AGADIR helical propensity calculator was used to calculate predicted helicity scores of 14.5 and 13.2 for A-FosW and HingeW, respectively.[42] […]
as §2

IC50 (cJun/TRE DNA interaction): 16 ± 0.4 µM
increase in α-helical content of heterodimer with cJun relative to average of component spectra (cJun bZIP; 150 mM potassium phosphate, 150 mM KF, 5 mM TCEP): 39%
Fraction helicity of heterodimer with cJun (cJun bZIP): 38.7%
Sequence: LEQRAEELARENEELEKEAEELEQELDELQAEIEQLEERNYALRKEIEDLQKQLEKL [A-FosW, N-terminal AS and C-terminal GAP caps, 6xHis-tagged]
interaction with TRE DNA (TRE DNA): no interaction with DNA
